Details: Liquid

C[C@H](O)C(=O)[O-].C[N+](C)(C)CCO
Details | mass density [kg/m3]
293.15 K, 101.33 kPa | 1143.2
298.15 K, 101.33 kPa | 1139.9
303.15 K, 101.33 kPa | 1136.8
308.15 K, 101.33 kPa | 1133.6
312.4 K, 100 kPa | 1130
312.4 K, 10000 kPa | 1133
312.4 K, 20000 kPa | 1137
312.4 K, 30000 kPa | 1140
312.4 K, 40000 kPa | 1143
312.4 K, 50000 kPa | 1146
312.4 K, 60000 kPa | 1150
312.4 K, 70000 kPa | 1152
312.4 K, 80000 kPa | 1155
312.4 K, 90000 kPa | 1157
312.4 K, 100000 kPa | 1160
312.4 K, 110000 kPa | 1163
312.4 K, 120000 kPa | 1166
312.4 K, 130000 kPa | 1168
312.4 K, 140000 kPa | 1171
312.4 K, 150000 kPa | 1173
312.4 K, 160000 kPa | 1176
312.4 K, 170000 kPa | 1178
312.4 K, 180000 kPa | 1181
312.4 K, 190000 kPa | 1183
312.4 K, 200000 kPa | 1185
313.15 K, 101.33 kPa | 1130.5
318.15 K, 101.33 kPa | 1127.3
323.15 K, 101.33 kPa | 1124.2
328.15 K, 101.33 kPa | 1121.1
332.3 K, 10000 kPa | 1121
332.3 K, 20000 kPa | 1124
332.3 K, 30000 kPa | 1128
332.3 K, 40000 kPa | 1131
332.3 K, 50000 kPa | 1134
332.3 K, 60000 kPa | 1137
332.3 K, 70000 kPa | 1140
332.3 K, 80000 kPa | 1143
332.3 K, 90000 kPa | 1146
332.3 K, 100000 kPa | 1149
332.3 K, 110000 kPa | 1152
332.3 K, 120000 kPa | 1154
332.3 K, 130000 kPa | 1157
332.3 K, 140000 kPa | 1160
332.3 K, 150000 kPa | 1162
332.3 K, 160000 kPa | 1165
332.3 K, 170000 kPa | 1168
332.3 K, 180000 kPa | 1170
332.3 K, 190000 kPa | 1172
332.3 K, 200000 kPa | 1175
333.15 K, 101.33 kPa | 1118.1
338.15 K, 101.33 kPa | 1115.1
343.15 K, 101.33 kPa | 1112.2
348.15 K, 101.33 kPa | 1109.3
352.2 K, 10000 kPa | 1109
352.2 K, 20000 kPa | 1113
352.2 K, 30000 kPa | 1116
352.2 K, 40000 kPa | 1120
352.2 K, 50000 kPa | 1123
352.2 K, 60000 kPa | 1126
352.2 K, 70000 kPa | 1129
352.2 K, 80000 kPa | 1132
352.2 K, 90000 kPa | 1135
352.2 K, 100000 kPa | 1138
352.2 K, 110000 kPa | 1141
352.2 K, 120000 kPa | 1144
352.2 K, 130000 kPa | 1146
352.2 K, 140000 kPa | 1149
352.2 K, 150000 kPa | 1152
352.2 K, 160000 kPa | 1154
352.2 K, 170000 kPa | 1157
352.2 K, 180000 kPa | 1159
352.2 K, 190000 kPa | 1162
352.2 K, 200000 kPa | 1165
353.15 K, 101.33 kPa | 1106.4
372.3 K, 10000 kPa | 1098
372.3 K, 20000 kPa | 1101
372.3 K, 30000 kPa | 1105
372.3 K, 40000 kPa | 1109
372.3 K, 50000 kPa | 1112
372.3 K, 60000 kPa | 1115
372.3 K, 70000 kPa | 1118
372.3 K, 80000 kPa | 1122
372.3 K, 90000 kPa | 1125
372.3 K, 100000 kPa | 1128
372.3 K, 110000 kPa | 1130
372.3 K, 120000 kPa | 1133
372.3 K, 130000 kPa | 1136
372.3 K, 140000 kPa | 1139
372.3 K, 150000 kPa | 1142
372.3 K, 160000 kPa | 1144
372.3 K, 170000 kPa | 1147
372.3 K, 180000 kPa | 1150
372.3 K, 190000 kPa | 1152
372.3 K, 200000 kPa | 1155
392.4 K, 10000 kPa | 1086
392.4 K, 20000 kPa | 1090
392.4 K, 30000 kPa | 1094
392.4 K, 40000 kPa | 1098
392.4 K, 50000 kPa | 1101
392.4 K, 60000 kPa | 1105
392.4 K, 70000 kPa | 1108
392.4 K, 80000 kPa | 1111
392.4 K, 90000 kPa | 1114
392.4 K, 100000 kPa | 1117
392.4 K, 110000 kPa | 1121
392.4 K, 120000 kPa | 1124
392.4 K, 130000 kPa | 1126
392.4 K, 140000 kPa | 1129
392.4 K, 150000 kPa | 1132
392.4 K, 160000 kPa | 1135
392.4 K, 170000 kPa | 1138
392.4 K, 180000 kPa | 1140
392.4 K, 190000 kPa | 1143
392.4 K, 200000 kPa | 1146

From the NIST ThermoML archive (doi:10.1021/je1008747)
